We go through nine compounds from patent US7462600B2, “Macrolides” (Pfizer Inc, priority 2004, dated 2008).

The structures appear in SMILES notation. In brackets after ≈: the same amount, converted by molar mass. Where two headings read alike, the source gives them in different places. Where only a bound is given, the exact number is not on record here.

Type in all cases: cell-based
Experiment [1] relates to Haemophilus influenzae 1218. The experiment can be described thus: MIC, microtiter broth dilution (NCCLS M100-S14), H. influenzae 1218 (susceptible). The gist of the method:
(§1)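 DMSO stocks, 40 mg/ml; trays scored for MIC following M100-S14 (NCCLS).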

The test system of experiment [2] is Streptococcus pneumoniae 1095. Particulars: microtiter broth dilution. An outline of the steps:
as §1

For experiment [3], the system named is Streptococcus pneumoniae 1175. Particulars: microtiter broth dilution. The gist of the method:
as §1

Experiment [4] relates to Streptococcus pyogenes 1079. Put plainly: MIC, microtiter broth dilution (NCCLS M100-S14), S. pyogenes 1079 (ermB). An outline of the steps:
as §1

In experiment [5] the test system is Streptococcus pneumoniae 1016. The experiment can be described thus: MIC, microtiter broth dilution (NCCLS M100-S14), S. pneumoniae 1016 (susceptible). The gist of the method: as §1
Where [6] appears, read: H. influenzae 1218 (susceptible).
The mark [7] stands for this setting: S. pneumoniae 1016 (susceptible).

In the case of `CCC1OC(=O)C(C)C(=O)C(C)C(OC2OC(C)CC(N(C)C)C2O)C(C)(OC)CC(C)C(=O)C(C)C2N(CC3C4CN(C(=O)c5cccc(C#N)c5)CC43)C(=O)OC12C` (stereo not drawn) [16.05], in experiment [1] (setting [6]), the “MIC H. influenzae 1218” value is 0.5 µg/mL (≈ 0.597 µM). For the same compound, in experiment [2] (S. pneumoniae 1095 (ermB)), the “MIC S. pneumo. 1095” value came to 1.56 µg/mL (≈ 1.86 µM). The “MIC S. pneumo. 1175” value in experiment [3] (S. pneumoniae 1175 (mefA)) turned out to be 1.56 µg/mL (≈ 1.86 µM). For the same compound, the “MIC S. pyogenes 1079” value in experiment [4] (S. pyogenes 1079 (ermB)) worked out at 3.12 µg/mL (≈ 3.73 µM). Besides, the “MIC S. pneumo. 1016” value in experiment [5] (setting [7]) worked out at 0.01 µg/mL (≈ 0.0119 µM).

On to `CCC1OC(=O)C(C)C(=O)C(C)C(OC2OC(C)CC(N(C)C)C2O)C(C)(OC)CC(C)C(=O)C(C)C2N(C3CN(S(=O)(=O)c4ccc5oc(=O)[nH]c5c4)C3)C(=O)OC12C` (stereo not drawn) [Example 3.22, 3-descladinosyl-11,12-dideoxy-6-O-methyl-3-oxo-12,11-(oxycarbonyl-(1-(2,3-dihydro-2-oxobenzo[d]oxazole-5-sulfonyl)-azetidin-3-yl)-imino)-erythromycin A], for which the “MIC H. influenzae 1218” value in experiment [1] (Haemophilus influenzae 1218) was determined as 0.25 µg/mL (≈ 0.289 µM). In addition, the “MIC S. pneumo. 1095” value in experiment [2] (Streptococcus pneumoniae 1095) stood at 4 µg/mL (≈ 4.62 µM). Moreover, the “MIC S. pneumo. 1175” value in experiment [3] (Streptococcus pneumoniae 1175) is 0.5 µg/mL (≈ 0.578 µM). Also, the “MIC S. pyogenes 1079” value in experiment [4] (Streptococcus pyogenes 1079) turned out to be 1 µg/mL (≈ 1.16 µM). In addition, the “MIC S. pneumo. 1016” value in experiment [5] (Streptococcus pneumoniae 1016) was under 0.06 µg/mL.

With `CCC1OC(=O)C(C)C(=O)C(C)C(OC2OC(C)CC(N(C)C)C2O)C(C)(OC)CC(C)C(=O)C(C)C2N(CC3CCN(C(=O)c4cncc5ccccc45)C3)C(=O)OC12C` (stereo not drawn) [13.17], in experiment [1] (setting [6]), the “MIC H. influenzae 1218” value came out at 4 µg/mL (≈ 4.7 µM). Moreover, in experiment [2] (S. pneumoniae 1095 (ermB)), the “MIC S. pneumo. 1095” value was over 64.00 µg/mL. The “MIC S. pneumo. 1175” value in experiment [3] (S. pneumoniae 1175 (mefA)) worked out at 0.25 µg/mL (≈ 0.294 µM). For the same compound, the “MIC S. pyogenes 1079” value in experiment [4] (S. pyogenes 1079 (ermB)) was over 64.00 µg/mL. For the same compound, in experiment [5] (setting [7]), the “MIC S. pneumo. 1016” value is under 0.06 µg/mL.

Regarding `CCC1OC(=O)C(C)C(=O)C(C)C(OC2OC(C)CC(N(C)C)C2O)C(C)(OC)CC(C)C(=O)C(C)C2N(C3CN(S(=O)(=O)c4ccc(-c5n[nH]c(=O)[nH]c5=O)cc4)C3)C(=O)OC12C` (stereo not drawn) [Example 3.20, 3-descladinosyl-11,12-dideoxy-6-O-methyl-3-oxo-12,11-(oxycarbonyl-(1-(4-(2,3,4,5-tetrahydro-3,5-dioxo-1,2,4-triazin-6-yl)benzenesulfonyl)-azetidin-3-yl)-imino)-erythromycin A], the “MIC H. influenzae 1218” value in experiment [1] (Haemophilus influenzae 1218) is 0.5 µg/mL (≈ 0.544 µM). Moreover, the “MIC S. pneumo. 1095” value in experiment [2] (Streptococcus pneumoniae 1095) is under 0.06 µg/mL. In experiment [3] (Streptococcus pneumoniae 1175), the “MIC S. pneumo. 1175” value amounted to 2 µg/mL (≈ 2.18 µM). Moreover, the “MIC S. pyogenes 1079” value in experiment [4] (Streptococcus pyogenes 1079) worked out at 8 µg/mL (≈ 8.7 µM). The “MIC S. pneumo. 1016” value in experiment [5] (Streptococcus pneumoniae 1016) is under 0.06 µg/mL.

For the compound `CCC1OC(=O)C(C)C(=O)C(C)C(OC2OC(C)CC(N(C)C)C2O)C(C)(OC)CC(C)C(=O)C(C)C2N(CC3CN(Cc4nc5ccccc5[nH]4)C3)C(=O)OC12C` (stereo not drawn) [4.16], the “MIC H. influenzae 1218” value in experiment [1] (Haemophilus influenzae 1218) came out at 0.5 µg/mL (≈ 0.616 µM). For the same compound, in experiment [2] (Streptococcus pneumoniae 1095), the “MIC S. pneumo. 1095” value was determined as 2 µg/mL (≈ 2.46 µM). Also, in experiment [3] (Streptococcus pneumoniae 1175), the “MIC S. pneumo. 1175” value was determined as 0.25 µg/mL (≈ 0.308 µM). Besides, the “MIC S. pyogenes 1079” value in experiment [4] (Streptococcus pyogenes 1079) was over 64.00 µg/mL. For the same compound, the “MIC S. pneumo. 1016” value in experiment [5] (Streptococcus pneumoniae 1016) was under 0.06 µg/mL.

Regarding `CCC1OC(=O)C(C)C(=O)C(C)C(OC2OC(C)CC(N(C)C)C2O)C(C)(OC)CC(C)C(=O)C(C)C2N(C3CN(S(=O)(=O)c4cnc5ccccn45)C3)C(=O)OC12C` (stereo not drawn) [Example 3.15, 3-descladinosyl-11,12-dideoxy-6-O-methyl-3-oxo-12,11-(oxycarbonyl-(1-(H-imidazo[1,2-a]pyridine-3-sulfonyl)-azetidin-3-yl)-imino)-erythromycin A], the “MIC H. influenzae 1218” value in experiment [1] (Haemophilus influenzae 1218) is 0.25 µg/mL (≈ 0.295 µM). Also, in experiment [2] (Streptococcus pneumoniae 1095), the “MIC S. pneumo. 1095” value is under 0.06 µg/mL. Further, the “MIC S. pneumo. 1175” value in experiment [3] (Streptococcus pneumoniae 1175) was under 0.06 µg/mL. The “MIC S. pyogenes 1079” value in experiment [4] (Streptococcus pyogenes 1079) came to 1 µg/mL (≈ 1.18 µM). Moreover, the “MIC S. pneumo. 1016” value in experiment [5] (Streptococcus pneumoniae 1016) is under 0.06 µg/mL.

As to `CCC1OC(=O)C(C)C(=O)C(C)C(OC2OC(C)CC(N(C)C)C2O)C(C)(OC)CC(C)C(=O)C(C)C2N(C3CN(C(=O)c4ccnc(-n5cnnn5)c4)C3)C(=O)OC12C` (stereo not drawn) [Example 2.19, 2-(1H-tetrazol-1-yl)pyridine-4-carboxyl], in experiment [1] (Haemophilus influenzae 1218), the “MIC H. influenzae 1218” value amounted to 32 µg/mL (≈ 38.1 µM). For the same compound, the “MIC S. pneumo. 1095” value in experiment [2] (Streptococcus pneumoniae 1095) was over 64.00 µg/mL. Moreover, in experiment [3] (Streptococcus pneumoniae 1175), the “MIC S. pneumo. 1175” value worked out at 0.5 µg/mL (≈ 0.595 µM). Further, the “MIC S. pyogenes 1079” value in experiment [4] (Streptococcus pyogenes 1079) was over 64.00 µg/mL. The “MIC S. pneumo. 1016” value in experiment [5] (Streptococcus pneumoniae 1016) is under 0.06 µg/mL.

Regarding `CCC1OC(=O)C(C)C(=O)C(C)C(OC2OC(C)CC(N(C)C)C2O)C(C)(OC)CC(C)C(=O)C(C)C2N(CC3CN(Cc4cnc5cnccn45)C3)C(=O)OC12C` (stereo not drawn) [4.28], the “MIC H. influenzae 1218” value in experiment [1] (Haemophilus influenzae 1218) stood at 0.25 µg/mL (≈ 0.308 µM). Also, in experiment [2] (Streptococcus pneumoniae 1095), the “MIC S. pneumo. 1095” value came out at 8 µg/mL (≈ 9.84 µM). For the same compound, the “MIC S. pneumo. 1175” value in experiment [3] (Streptococcus pneumoniae 1175) worked out at 1 µg/mL (≈ 1.23 µM). In addition, the “MIC S. pyogenes 1079” value in experiment [4] (Streptococcus pyogenes 1079) was over 64.00 µg/mL. In experiment [5] (Streptococcus pneumoniae 1016), the “MIC S. pneumo. 1016” value was under 0.06 µg/mL.

`CCC1OC(=O)C(C)C(=O)C(C)C(OC2OC(C)CC(N(C)C)C2O)C(C)(OC)CC(C)C(=O)C(C)C2N(C3CN(S(=O)(=O)c4ccc(Oc5ccccn5)cc4)C3)C(=O)OC12C` (stereo not drawn) [Example 3.34, 4-(pyridin-2-yloxy)benzenesulfonyl]: the “MIC H. influenzae 1218” value in experiment [1] (Haemophilus influenzae 1218) came to 16 µg/mL (≈ 17.8 µM). Further, in experiment [2] (Streptococcus pneumoniae 1095), the “MIC S. pneumo. 1095” value worked out at 1 µg/mL (≈ 1.11 µM). The “MIC S. pneumo. 1175” value in experiment [3] (Streptococcus pneumoniae 1175) amounted to 0.12 µg/mL (≈ 0.133 µM). The “MIC S. pyogenes 1079” value in experiment [4] (Streptococcus pyogenes 1079) worked out at 64 µg/mL (≈ 71 µM). Besides, in experiment [5] (Streptococcus pneumoniae 1016), the “MIC S. pneumo. 1016” value was under 0.06 µg/mL.
